Literature values in patent publication US20070135390A1, “Phosphate derivatives” (priority 2003, published 2007).

Details: printed as in vitro use

## Phenol, 2,6-bis(1-methylethyl)-, dihydrogen phosphate (9CI) [propofol phosphate]
  induction of anesthesia: does not however induce anesthesia
